The record followed here is PubChem BioAssay AID1549 (Sanford-Burnham Center for Chemical Genomics, 2009).

Activity calls are given as the source filed them. How the calls were made is not given here. A value given as a limit tells only on which side of the number the result lay.

For orientation: Kd means the constant that tells how readily two partners part at equilibrium.

The target of this assay is Influenza A virus M2 proton channel (A/TW/4845/1999 H1N1). Kind of assay: M2 proton channel binding, NMR based, influenza A virus H1N1 strain (AID 1549). The following applies: NMR binding screen, M2 protein.
As to `Cc1[nH]ccc2c1[nH]c1cc(=O)ccc12`, the Kd is > 4 mM (inactive). `c1ccc(-c2nnc3sc(-c4ccncc4)nn23)cc1`: the Kd was > 4 mM (inactive). The figure for `CCn1ccc(C(=O)Nc2nccs2)n1` is > 4 mM (inactive). On to `Cc1cc(C)n(-c2ccc(N)cc2)n1`, for which the Kd was > 4 mM (inactive). On to `NC(=O)CSc1nnnn1-c1ccccc1`, for which the Kd was > 4 mM (inactive). On to `COc1ccc(-c2cn[nH]c2N)c(OC)c1`, for which the Kd is > 4 mM (inactive). As for `C(=Nn1cnnc1)c1ccccc1`, the Kd is > 4 mM (inactive).

On to `COc1cc2c(cc1OC)[C@@]13CCN4CC5=CCOC6CC(=O)N2C1[C@H]6[C@H]5C[C@H]43` (stereo partly drawn), for which the Kd was > 4 mM (inactive). On to `OCc1ccc(N2CCOCC2)nc1`, for which the Kd was > 4 mM (inactive). Then `CCn1cnc(C(=O)NC)c1C(=O)NC`, with > 4 mM (inactive).

Turning to `O=C1COc2ccc(C(=O)c3ccccc3)cc2CN1`, the Kd is > 4 mM (inactive). As for `OCc1cc(F)cc2c1OCOC2`, the Kd was > 4 mM (inactive). The figure for `COC(=O)C[C@@H]1C2(C)C(=O)[C@@H](CC3=C4C=C(OC)O[C@@H](c5ccoc5)[C@]4(C)CCC32)[C@H](O)C1(C)C` (stereo partly drawn) is > 4 mM (inactive); for `Cc1cc(C)n2c(SCc3c(C)noc3C)nnc2n1` it is > 4 mM (inactive); for `Cc1ccccc1C(=O)Nn1cnnc1` it is > 4 mM (inactive).

As for `Cc1nnc(NCc2cccnc2)[nH]c1=O`, the Kd was > 4 mM (inactive). Regarding `CC1=C(CCC(=O)O)c2cc3nc(cc4[nH]c(cc5[nH]c(cc1n2)c(C)c5C(C)O)c(C)c4C(C)O)C(C)=C3CCC(=O)O` (stereo not drawn), the Kd is > 4 mM (inactive). As to `Cc1c(C(=O)NCc2ccccn2)oc2ccccc12`, the Kd is > 4 mM (inactive). The figure for `COc1ccccc1NC(=O)c1ccc(C)s1` is > 4 mM (inactive); for `O=C(Nc1cccc2ncccc12)c1cccnc1` it is > 4 mM (inactive); for `Cc1nccc2c1[nH]c1ccccc12` it is > 4 mM (inactive). For the compound `COCc1nn2c(N)c(C#N)cnc2c1-c1ccccc1`, the Kd was > 4 mM (inactive).

Consider `Cc1occc1C(=O)Nc1nnc(-c2ccncc2)s1`, for which the Kd is > 4 mM (inactive). The figure for `NC(=O)CCS(=O)(=O)CCN1CCOCC1` is > 4 mM (inactive). Then `N[C@@H](Cc1cc(I)c(Oc2cc(I)c(O)c(I)c2)c(I)c1)C(=O)O`, with > 4 mM (inactive); and `Cc1nn(C)c(C)c1C(=O)O`, with > 4 mM (inactive). Consider `CN1C2CC3C[C@H]1C(O3)C2O` (stereo partly drawn), for which the Kd is > 4 mM (inactive). The figure for `CCP(=O)(CC)c1cccc(C)c1` is > 4 mM (inactive). As to `CN(C)S(=O)(=O)Nc1ccc(Br)cc1F`, the Kd is > 4 mM (inactive). Turning to `Cc1cccc(-n2c(N)cc(=O)[nH]c2=S)c1C`, the Kd is > 4 mM (inactive). The figure for `Cc1onc(-c2c(F)cccc2Cl)c1C(N)=O` is > 4 mM (inactive). For `O=C1CSC(=Nc2ccc(C(=O)O)cc2)N1`, the Kd was > 4 mM (inactive).

Regarding `CC(=O)Nc1ccc(N2C(=O)C=CC2=O)cc1C`, the Kd was > 4 mM (inactive). On to `CC1(C)C(=O)N(O)C(C)(C)C(=O)N1O`, for which the Kd was > 4 mM (inactive). As to `O=C(Cc1ccccc1)Nc1c[nH]c(=O)[nH]c1=O`, the Kd was > 4 mM (inactive). Consider `Cc1ccc(C(=O)n2cnnc2N)cc1C`, for which the Kd is > 4 mM (inactive). As for `CC(C)CCCC(C)[C@H]1CCC2C3CC[C@@H]4C[C@H](O)CC[C@]4(C)C3CC[C@@]21C` (stereo partly drawn), the Kd was > 4 mM (inactive). Then `N#CCSc1nc2ccccc2c(=O)n1-c1ccccc1`, with > 4 mM (inactive); and `COc1cc2[nH]c(=S)n(C)c(=O)c2cc1OC`, with > 4 mM (inactive); and `CC(=O)NC1C(=O)Nc2c(C)cc(C)cc21` (stereo not drawn), with > 4 mM (inactive). Take `O=C1NC(=S)N/C1=C\c1cccnc1`: the Kd was > 4 mM (inactive). Regarding `Cc1ccc(Nc2nnns2)cc1C`, the Kd is > 4 mM (inactive). The figure for `CC12CCC3C(CC3(C)C)C(C)(CCC1=O)O2` (stereo not drawn) is > 4 mM (inactive); for `O=C(Nn1c(=S)[nH]c2ccccc2c1=O)c1ccncc1` it is > 4 mM (inactive); for `CC1(C)C=Cc2cc3ccc(=O)oc3cc2O1` it is > 4 mM (inactive). On to `Cc1cc(=O)[nH]c(N2CCCCC2)n1`, for which the Kd was > 4 mM (inactive). In the case of `NC(=O)C(=O)NCc1ccc(Cl)cc1`, the Kd was > 4 mM (inactive).

For the compound `CCOc1nc(C)ccc1-c1noc(-c2ccncc2)n1`, the Kd was > 4 mM (inactive). As for `Cn1c(O)c(/C=C2\C=CC=N2)c(=O)[nH]c1=S`, the Kd is > 4 mM (inactive). Then `COC(=O)c1ccc2ncccc2c1`, with > 4 mM (inactive). Consider `Cc1cc(C)cc(OC(=O)N2CCOCC2)c1`, for which the Kd was > 4 mM (inactive).

Take `CCc1c(C(=O)N2CCOCC2)csc1C`: the Kd was > 4 mM (inactive). For `COc1cc(OC)c2c(=O)c(-c3ccc4c(c3)OCO4)coc2c1`, the Kd is > 4 mM (inactive). Turning to `CC(C)Nc1ncnc2c1nnn2C`, the Kd is > 4 mM (inactive).

In the case of `CN(C(=O)NC1CCS(=O)(=O)C1)C1CCCCC1` (stereo not drawn), the Kd is > 4 mM (inactive). `C=CCn1c(N)c(C(=O)N2CCOCC2)sc1=S`: the Kd was > 4 mM (inactive).

With `CC(C)c1nnc(N)s1`, the Kd is > 4 mM (inactive). Then `Cc1cc(N2C(=O)CCC2=O)n(-c2ccccc2)n1`, with > 4 mM (inactive). The figure for `O=c1[nH]nc(Cc2ccccn2)c2ccccc12` is > 4 mM (inactive). For `Cc1nc(-c2cccc(C(=O)O)c2)cs1`, the Kd was > 4 mM (inactive). Then `c1ccc2c(c1)CN1CCCC1=N2`, with > 4 mM (inactive); and `COC(=O)C1=CCCN(C)C1`, with > 4 mM (inactive); and `NC1C2CC3CC1CC(O)(C3)C2` (stereo not drawn), with > 4 mM (inactive). With `COc1cccc(NC(=O)c2cccs2)c1`, the Kd is > 4 mM (inactive).

On to `COc1ccccc1NC(=O)CCC(=O)O`, for which the Kd was > 4 mM (inactive). The figure for `NCc1oc(-c2ccccc2)cc1C(=O)O` is > 4 mM (inactive). As for `O=C(Nc1ccc(Cl)cn1)c1cnn2cccnc12`, the Kd is > 4 mM (inactive). For the compound `CSc1nnc2c(n1)OC=Nc1ccccc1-2`, the Kd was > 4 mM (inactive). As for `O=c1[nH]nc(Cc2ccncc2)c2ccccc12`, the Kd is > 4 mM (inactive). Then `Nc1ccc(-c2cn3c(n2)SCC3)cc1`, with > 4 mM (inactive).

Turning to `Cc1nn2c(=O)nc3sc4c(c3c2[nH]c1=O)CCCC4`, the Kd was > 4 mM (inactive).

As for `COCc1cc(=O)oc2cc(O)c(Cl)cc12`, the Kd was > 4 mM (inactive).

With `COc1cc2c3cc1Oc1c(OC)c(OC)cc4c1[C@@H](Cc1cccc(c1)Oc1ccc(c(O)c1)C[C@@H]3N(C)CC2)N(C)CC4`, the Kd is > 4 mM (inactive).
